Measured values reported in ChEMBL document CHEMBL1124985, “A Free-Wilson/Fujita-Ban analysis and prediction of the analgesic potency of some 3-hydroxy- and 3-methoxy-N-alkylmorphinan-6-one opioids” (J Med Chem, 1990).

target: Opioid receptor (Mus musculus) (UniProt P42866+P32300+P33534)
Sequence (P32300 whole entry, looked up): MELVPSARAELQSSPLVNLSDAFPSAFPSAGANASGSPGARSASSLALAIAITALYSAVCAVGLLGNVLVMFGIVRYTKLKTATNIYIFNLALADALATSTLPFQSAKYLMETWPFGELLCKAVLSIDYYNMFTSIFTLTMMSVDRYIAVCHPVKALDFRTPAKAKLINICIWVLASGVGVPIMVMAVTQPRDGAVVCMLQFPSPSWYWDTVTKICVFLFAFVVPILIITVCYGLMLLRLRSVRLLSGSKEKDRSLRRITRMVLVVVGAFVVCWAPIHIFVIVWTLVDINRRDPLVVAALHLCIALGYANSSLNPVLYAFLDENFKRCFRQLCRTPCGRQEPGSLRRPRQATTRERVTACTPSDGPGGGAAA
Sequence (P33534 whole entry, looked up): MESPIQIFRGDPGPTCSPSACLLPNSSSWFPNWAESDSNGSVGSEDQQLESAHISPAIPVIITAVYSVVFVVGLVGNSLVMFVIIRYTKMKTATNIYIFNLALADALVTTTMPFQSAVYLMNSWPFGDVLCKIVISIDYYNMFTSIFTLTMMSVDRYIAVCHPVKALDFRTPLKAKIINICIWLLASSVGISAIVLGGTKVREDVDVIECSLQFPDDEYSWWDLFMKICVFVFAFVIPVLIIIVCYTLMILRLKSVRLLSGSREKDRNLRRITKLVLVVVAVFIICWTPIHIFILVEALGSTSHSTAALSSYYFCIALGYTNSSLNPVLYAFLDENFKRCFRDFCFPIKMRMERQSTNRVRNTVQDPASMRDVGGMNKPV
Sequence (P42866 whole entry, looked up): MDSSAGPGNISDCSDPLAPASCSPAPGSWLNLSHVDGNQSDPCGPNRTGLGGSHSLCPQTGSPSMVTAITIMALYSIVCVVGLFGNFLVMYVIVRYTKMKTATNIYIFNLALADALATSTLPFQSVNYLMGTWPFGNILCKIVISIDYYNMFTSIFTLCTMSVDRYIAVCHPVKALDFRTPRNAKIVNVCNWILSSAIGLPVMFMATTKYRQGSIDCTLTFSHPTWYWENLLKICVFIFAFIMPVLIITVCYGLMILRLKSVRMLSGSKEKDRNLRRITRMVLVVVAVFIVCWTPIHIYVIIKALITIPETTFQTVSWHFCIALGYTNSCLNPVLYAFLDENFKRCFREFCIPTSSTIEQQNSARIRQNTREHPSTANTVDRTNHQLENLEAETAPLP
Description: Analgesic Potency was tested against mice

**Q.** How did the Log AP turn out when `C[C@H]1CCC[C@]23CCN(C)[C@H](Cc4ccc(O)cc42)C13` (some centres undefined) was run?
**A.** 5.32

**Q.** Which Log AP does the source give for `COc1ccc2c(c1)[C@@]13CCC[C@H](C)C1[C@@H](C2)N(C)CC3` (some centres undefined) here?
**A.** 5.87

**Q.** For `COc1ccc2c(c1)[C@@]13CCCCC1[C@@H](C2)N(CC1CC1)CC3` (some centres undefined), which Log AP is on record?
**A.** 6.87

**Q.** With `COc1ccc2c(c1)[C@@]13CCC(C)[C@H](C)C1[C@@H](C2)N(CC1CC1)CC3` (some centres undefined) as the compound, how does the Log AP read?
**A.** 6.15

**Q.** For `CC1CC[C@]23CCN(CC4CCC4)[C@H](Cc4ccc(O)cc42)C3C1` (some centres undefined), which Log AP is on record?
**A.** 6.71

**Q.** With `CC[C@H]1C(C)CC[C@]23CCN(CC4CCC4)[C@H](Cc4ccc(O)cc42)C13` (some centres undefined) as the compound, how does the Log AP read?
**A.** 5.82

**Q.** Which Log AP does the source give for `C[C@H]1CCC[C@]23CCN(CC4CCC4)[C@H](Cc4ccc(O)cc42)C13` (stereo in doubt; 41) here?
**A.** 6.6

**Q.** With `CC[C@H]1CC[C@@H]2Oc3c(OC)ccc4c3[C@@]23CCN(CC2CC2)[C@H](C4)C13` (some centres undefined) as the compound, how does the Log AP read?
**A.** 5.18

**Q.** `CCC[C@H]1CC[C@@H]2Oc3c(OC)ccc4c3[C@@]23CCN(C)[C@H](C4)C13` (some centres undefined) was tested. Which Log AP did it give?
**A.** 4.87

**Q.** Which Log AP does the source give for `Oc1ccc2c(c1)[C@@]13CCCC[C@H]1[C@@H](C2)N(CC1CCC1)CC3` here?
**A.** 6.45

**Q.** How did the Log AP turn out when `COc1ccc2c(c1)[C@@]13CCC(C)[C@H](C)C1[C@@H](C2)N(CC1CCC1)CC3` (some centres undefined) was run?
**A.** 5.25

**Q.** For `COc1ccc2c(c1)[C@@]13CCC[C@H](C)C1[C@@H](C2)N(CC1CCC1)CC3` (some centres undefined), which Log AP is on record?
**A.** 5.99

**Q.** How did the Log AP turn out when `COc1ccc2c(c1)[C@]13CCN(C)[C@H](C2)[C@@H]1C=CC(=O)C3` was run?
**A.** 6.45

**Q.** `CC1CC[C@]23CCN(CC4CC4)[C@H](Cc4ccc(O)cc42)C3C1` (some centres undefined) was tested. Which Log AP did it give?
**A.** 5.24

**Q.** `COc1ccc2c(c1)[C@]13CCN(CC4CCC4)[C@H](C2)[C@H]1CC(C)C(=O)C3` (some centres undefined) was tested. Which Log AP did it give?
**A.** 4.68

**Q.** Which Log AP does the source give for `C=C1C[C@H](C)[C@H]2[C@H]3Cc4ccc(O)cc4[C@@]2(CCN3CC2CCC2)C1` here?
**A.** 6.07

**Q.** `C[C@H]1CCC[C@]23CCN(C)[C@H](Cc4ccc(O)cc42)[C@H]13` was tested. Which Log AP did it give?
**A.** 5.12

**Q.** For `CCC[C@H]1CCC[C@]23CCN(CC4CC4)[C@H](Cc4ccc(OC)cc42)C13` (some centres undefined), which Log AP is on record?
**A.** 4.76

**Q.** Which Log AP does the source give for `COc1ccc2c(c1)[C@@]13CCC[C@H](C)C1[C@@H](C2)N(CC1CC1)CC3` (some centres undefined) here?
**A.** 6.59

**Q.** With `C[C@H]1CC(=O)C[C@]23CCN(C)[C@H](Cc4ccc(O)cc42)[C@@H]13` as the compound, how does the Log AP read?
**A.** 6.32

**Q.** How did the Log AP turn out when `COc1ccc2c3c1O[C@H]1CCCC4[C@@H](C2)N(CC2CCC2)CC[C@@]341` (some centres undefined) was run?
**A.** 5.58

**Q.** Which Log AP does the source give for `COc1ccc2c3c1OC1CC[C@H](C)C4[C@@H](C2)N(CC2CCC2)CC[C@]314` (some centres undefined) here?
**A.** 5.26

**Q.** How did the Log AP turn out when `C[C@H]1CCC2Oc3c(O)ccc4c3[C@@]23CCN(C)[C@H](C4)C13` (some centres undefined) was run?
**A.** 6.03

**Q.** For `CN1CC[C@]23c4c5ccc(O)c4O[C@H]2CCCC3[C@H]1C5` (some centres undefined), which Log AP is on record?
**A.** 5.95

**Q.** `C[C@H]1CC[C@@H]2Oc3c(O)ccc4c3[C@@]23CCN(CC2CCC2)[C@H](C4)C13` (some centres undefined) was tested. Which Log AP did it give?
**A.** 6.41

**Q.** `COc1ccc2c(c1)[C@@]13CCCCC1[C@@H](C2)N(CC1CCC1)CC3` (some centres undefined) was tested. Which Log AP did it give?
**A.** 6.09

**Q.** How did the Log AP turn out when `CCC[C@H]1CCC[C@]23CCN(C)[C@H](Cc4ccc(OC)cc42)C13` (some centres undefined) was run?
**A.** 4.9

**Q.** With `CC1CC[C@]23CCN(C)[C@H](Cc4ccc(O)cc42)C3C1` (some centres undefined) as the compound, how does the Log AP read?
**A.** 5.56

**Q.** How did the Log AP turn out when `CC[C@H]1CCC2Oc3c(OC)ccc4c3[C@@]23CCN(C)[C@H](C4)C13` (some centres undefined) was run?
**A.** 5.72

**Q.** How did the Log AP turn out when `CC[C@H]1CCC[C@]23CCN(C)[C@H](Cc4ccc(OC)cc42)C13` (some centres undefined) was run?
**A.** 5.93

**Q.** `COc1ccc2c3c1O[C@H]1CC(C)CC4[C@@H](C2)N(C)CC[C@@]341` (some centres undefined) was tested. Which Log AP did it give?
**A.** 5.71

**Q.** How did the Log AP turn out when `CC[C@H]1C(C)CC[C@]23CCN(C)[C@H](Cc4ccc(OC)cc42)C13` (some centres undefined) was run?
**A.** 5.69

**Q.** For `COc1ccc2c3c1OC1CC[C@H](C)C4[C@@H](C2)N(CC2CC2)CC[C@]314` (some centres undefined), which Log AP is on record?
**A.** 5.16

**Q.** For `CC1CC[C@]23CCN(CC4CCC4)[C@H](Cc4ccc(O)cc42)C3[C@H]1C` (stereo in doubt; 40), which Log AP is on record?
**A.** 6.23

**Q.** With `C[C@H]1CC(=O)C[C@]23CCN(CC4CCC4)[C@H](Cc4ccc(O)cc42)[C@@H]13` as the compound, how does the Log AP read?
**A.** 5.75

**Q.** `Oc1ccc2c3c1O[C@H]1CCCC4[C@@H](C2)N(CC2CCC2)CC[C@@]341` (some centres undefined) was tested. Which Log AP did it give?
**A.** 6.49

**Q.** Which Log AP does the source give for `CC[C@H]1CCC[C@]23CCN(CC4CCC4)[C@H](Cc4ccc(OC)cc42)C13` (some centres undefined) here?
**A.** 5.47

**Q.** How did the Log AP turn out when `C[C@H]1CCC[C@]23CCN(CC4CCC4)[C@H](Cc4ccc(O)cc42)C13` (stereo in doubt; 46) was run?
**A.** 6.41

**Q.** Which Log AP does the source give for `C[C@H]1CCC[C@]23CCN(CC4CC4)[C@H](Cc4ccc(O)cc42)C13` (some centres undefined) here?
**A.** 4.81

**Q.** For `COc1ccc2c3c1O[C@H]1CCCC4[C@@H](C2)N(C)CC[C@@]341` (some centres undefined), which Log AP is on record?
**A.** 5.54

**Q.** Which Log AP does the source give for `CN1CC[C@]23CCCCC2C1Cc1ccc(O)cc13` (some centres undefined) here?
**A.** 5.99

**Q.** `COc1ccc2c3c1OC1CC[C@H](C)C4[C@@H](C2)N(C)CC[C@]314` (some centres undefined) was tested. Which Log AP did it give?
**A.** 5.45

**Q.** How did the Log AP turn out when `COc1ccc2c(c1)[C@@]13CCC(C)CC1[C@@H](C2)N(CC1CC1)CC3` (some centres undefined) was run?
**A.** 5.97

**Q.** Which Log AP does the source give for `COc1ccc2c(c1)[C@@]13CCCC[C@H]1[C@@H](C2)N(C)CC3` here?
**A.** 5.84

**Q.** With `COc1ccc2c(c1)[C@]13CCN(C)[C@H](C2)[C@@H]1C=C(C)C(=O)C3` as the compound, how does the Log AP read?
**A.** 5.67

**Q.** How did the Log AP turn out when `CC1CC[C@]23CCN(CC4CCC4)[C@H](Cc4ccc(O)cc42)C3[C@H]1C` (stereo in doubt; 20) was run?
**A.** 6.95

**Q.** With `CC[C@H]1C(C)CC[C@]23CCN(CC4CCC4)[C@H](Cc4ccc(OC)cc42)C13` (some centres undefined) as the compound, how does the Log AP read?
**A.** 5.04

**Q.** With `O=C1CC[C@@H]2[C@H]3Cc4ccc(O)cc4[C@@]2(CCN3CC2CCC2)C1` as the compound, how does the Log AP read?
**A.** 5.92

**Q.** For `COc1ccc2c3c1O[C@H]1CCCC4[C@@H](C2)N(CC2CC2)CC[C@@]341` (some centres undefined), which Log AP is on record?
**A.** 6.2

**Q.** How did the Log AP turn out when `COc1ccc2c(c1)[C@@]13CCC(C)CC1[C@@H](C2)N(CC1CCC1)CC3` (some centres undefined) was run?
**A.** 5.16

**Q.** Which Log AP does the source give for `Oc1ccc2c(c1)[C@@]13CCCC[C@H]1[C@@H](C2)N(CC1CC1)CC3` here?
**A.** 5.16

**Q.** How did the Log AP turn out when `CC[C@H]1CCC[C@]23CCN(CC4CC4)[C@H](Cc4ccc(OC)cc42)C13` (some centres undefined) was run?
**A.** 5.91

**Q.** With `COc1ccc2c(c1)[C@@]13CCC(C)[C@H](C)C1[C@@H](C2)N(C)CC3` (some centres undefined) as the compound, how does the Log AP read?
**A.** 5.95

**Q.** `Oc1ccc2c3c1O[C@H]1CCCC4[C@@H](C2)N(CC2CC2)CC[C@@]341` (some centres undefined) was tested. Which Log AP did it give?
**A.** 5.37
